Laboratory results published in US7348401B2, “Peptides that inhibit complement activation” (priority 2003, dated 2008).
Where no end group is shown, it is not given here.

Columns and labels:
[1] = molecular target: T1, complement component C5 (Homo sapiens, UniProt P01031); test: Phage clone binding to C5 and free-peptide competition assay; details: for competition among phage clones and free peptides for binding to C5: free peptide at 50, 10 and 1 μM; for specific binding to complement component C5: phage panning / phage clone binding
T1 construct: purchased Advanced Research Technologies
Method: Peptides were identified by panning an M13 phage library (New England Biolabs), a random 12mer peptide library with a diversity of 10^11 different peptide structures, against complement component C5. The phage library was panned against C5 using three different methods for immobilizing C5. The binding reactions all contained 2×10^11 phage particles in PBS containing 0.5% BSA and 0.3% Tween 20. The binding reactions were carried out at 25° C. for two hours and then unbound phage were removed by washing 5 times with PBS containing 0.5% BSA and 0.3% Tween20. The phage were eluted by acid (0.2 M Glycine pH 2.2, 1 mg/mL BSA) and immediately neutralized with 1 M Tris pH 9.1. Following elution, recovered phage were amplified in ER2738 E. coli (NEB) and subjected to two more rounds of panning as described above. The methods for immobilizing C5 include directly coating C5 (Advanced Research Technologies) to the surface (1 μg/mL), capturing biotinylated C5 (1 μg/mL) on a neutravidin (Pierce) coated surface, and capturing biotinylated C5a (1 μg/mL) on a neutravidin (Pierce) coated surface. C5 and C5a (Quidel) were biotinylated by incubating with 10 fold molar excess of Sulfo-NHS-LC-LC-Biotin for 2 hours at room temperature at pH 7.4 and then removing excess biotin by gel filtration. A negative selection was performed in the final round against neutravidin for the two latter screening methods. DNA from twenty randomly selected clones from each of the three final libraries was isolated and sequenced.
The binding sites of the peptides were further probed via C5-binding competition assays. Increasing concentrations of each phage clone were incubated for 2 hours with 200 ng of biotinylated C5 in PBS containing 0.5% BSA. The phage bound C5 complex was captured on a neutravidin coated microplate for 20 minutes at room temperature and then washed with PBS containing 0.5% BSA. A peroxidase labeled anti-M13 antibody (Pharmacia) was used to detect the amount of phage bound to C5 with OPD substrate. Competition assays with free peptide were carried out in a similar manner except that one concentration of each phage clone was used which was determined as the concentration giving approximately 50% binding in the previous titration. Free peptide was added to the phage clones at concentrations of 50, 10 and 1 μM and incubated with the biotinylated C5 and the assay was carried out as above.

[2] = system: classical pathway; test: Classical pathway component assay (immune complex, ELISA for C5a, SC5b-9, C3a); type: biochemical, human; details: classical pathway, immune complex, human plasma
Method: The inhibition of the classical pathway by the peptides was measured by incubating human plasma in the presence and absence of peptides with an immune complex generated on a surface and then monitoring for the production of complement components C5a, SC5b-9, and C3a. To generate the immune complex, a 10 mg/mL solution of BSA in PBS was incubated at 56° C. for 30 minutes and then used to coat the surface of a microplate by diluting to 50 μg/mL at pH 9.6 and incubating for one hour at 37° C. The plate was washed and then incubated with 18 μg/mL mouse anti-BSA IgG2a (Sigma) for one hour at 37° C. Pooled human plasma with and without various concentrations of peptide were incubated for 30 minutes at 37° C. with the generated immune complex and the reaction was stopped with the addition of EDTA. The plasma samples were then analyzed with commercially available ELISA's for the production of C5a (Pharmingen), SC5b-9 (Quidel), and C3a (Quidel).

[3] = system: complement system activated by zymosan; test: Alternative activation pathway zymosan assay (ELISA for C5a, SC5b-9, C3a); type: biochemical; details: 2 mg/mL zymosan, human plasma
Method: The peptides were evaluated for involvement in activation of the complement system by the presence of zymosan. Zymosan, or yeast cell wall, has largely been described as an alternative pathway activator. In addition, there are sugars on the surface of the yeast cell wall which are capable of activating the lectin pathway. Therefore, zymosan can be considered as a general complement activator.
Varying concentrations of peptide were incubated with 2 mg/mL zymosan in pooled human plasma. The reactions were incubated at 37° C. for one hour and then stopped by the addition of EDTA. The samples were centrifuged, the plasma removed, and analyzed with commercially available ELISA's for the production of C5a (Pharmingen), SC5b-9 (Quidel), and C3a (Quidel).

[4] = system: classical pathway; antibody sensitized sheep erythrocyte cells; test: Classical pathway hemolytic assay (RBC hemolysis assay); type: cell-based, human; details: for inhibition of hemolysis: 100 uM peptide
Method: Inhibition of the classical pathway by the peptides was measured using a standard hemolysis assay, which monitors the lysis of sheep erythrocytes as a result of terminal complex formation (see e.g. FIG. 1, FIG. 10). Various concentrations of peptide were incubated with 50 μL pooled human plasma (diluted 1:30 with GVB^++), 5×10^7 antibody sensitized sheep erythrocyte cells, and GVB^++ buffer to a final volume of 200 μL. The reaction was incubated at 37° C. for one hour and centrifuged. The percentage of lysis was determined by measuring the optical density of the supernatant at 414 nm. 100% lysis was determined by the optical density at 414 nm of the supernatant from a control sample consisting of 5×10^7 antibody sensitized sheep erythrocyte cells in water. The percent inhibition was calculated as the (% lysisno peptide−% lysispeptide)/% lysisno peptide×100.

[5] = system: alternative pathway; test: Alternative activation pathway C.A. membrane assay (ELISA for C5a, SC5b-9, C3a); type: biochemical; details: cellulose acetate hemodialysis membrane, human plasma
Method: Inhibition of the alternative pathway by the peptides was determined by incubating pooled human plasma in the presence and absence of various concentrations of peptide with 20 mg of cellulose acetate hemodialysis membrane at 37° C. for one hour. The reaction was stopped with EDTA and then the samples were analyzed with commercially available ELISA's for the production of C5a (Pharmingen), SC5b-9 (Quidel), and C3a (Quidel).

[6] = system: Human mesangial cells; test: Inhibition of complement mediated cell death, in vitro autoimmune glomerulonephritis model; type: cell-based; details: 250 μM of peptide, 48 hours
Method: The peptides were evaluated for their ability to inhibit complement mediated cell death in an in vitro autoimmune glomerulonephritis model. Human mesangial cells were cultured to approximately 75% confluency and then treated for one hour at 37° C. with phosphatidyl inositol-phospholipase C to remove GPI-anchored complement regulatory proteins. Following enzyme treatment, the cells were washed and equilibrated in GSBM growth medium supplemented with 2.5% fetal bovine serum for one hour at 37° C. The cells were then incubated in pooled human plasma supplemented with 100 μg/mL of heat aggregated human IVIG (generated by heating at 63° C. for 30 minutes) either in the presence of absence of various concentrations of peptides for 48 hours at 37° C. The source of complement was replenished every 12 hours during the incubation by adding 25% of the original volume of fresh plasma along with heat aggregated IVIG and peptides so that the same final concentrations were maintained. Following the 48 hour incubation, the cells were stained with the commercial Live/Dead Viability kit (Molecular Probes) and the relative fluorescence was measured to determine the extent of cell death. The percent of cell death was calculated versus a control sample in which heat-inactivated plasma, (heated to 56° C. for 30 minutes) as a means of inactivating complement components, was used.

T1 sequence (P01031 19-1676): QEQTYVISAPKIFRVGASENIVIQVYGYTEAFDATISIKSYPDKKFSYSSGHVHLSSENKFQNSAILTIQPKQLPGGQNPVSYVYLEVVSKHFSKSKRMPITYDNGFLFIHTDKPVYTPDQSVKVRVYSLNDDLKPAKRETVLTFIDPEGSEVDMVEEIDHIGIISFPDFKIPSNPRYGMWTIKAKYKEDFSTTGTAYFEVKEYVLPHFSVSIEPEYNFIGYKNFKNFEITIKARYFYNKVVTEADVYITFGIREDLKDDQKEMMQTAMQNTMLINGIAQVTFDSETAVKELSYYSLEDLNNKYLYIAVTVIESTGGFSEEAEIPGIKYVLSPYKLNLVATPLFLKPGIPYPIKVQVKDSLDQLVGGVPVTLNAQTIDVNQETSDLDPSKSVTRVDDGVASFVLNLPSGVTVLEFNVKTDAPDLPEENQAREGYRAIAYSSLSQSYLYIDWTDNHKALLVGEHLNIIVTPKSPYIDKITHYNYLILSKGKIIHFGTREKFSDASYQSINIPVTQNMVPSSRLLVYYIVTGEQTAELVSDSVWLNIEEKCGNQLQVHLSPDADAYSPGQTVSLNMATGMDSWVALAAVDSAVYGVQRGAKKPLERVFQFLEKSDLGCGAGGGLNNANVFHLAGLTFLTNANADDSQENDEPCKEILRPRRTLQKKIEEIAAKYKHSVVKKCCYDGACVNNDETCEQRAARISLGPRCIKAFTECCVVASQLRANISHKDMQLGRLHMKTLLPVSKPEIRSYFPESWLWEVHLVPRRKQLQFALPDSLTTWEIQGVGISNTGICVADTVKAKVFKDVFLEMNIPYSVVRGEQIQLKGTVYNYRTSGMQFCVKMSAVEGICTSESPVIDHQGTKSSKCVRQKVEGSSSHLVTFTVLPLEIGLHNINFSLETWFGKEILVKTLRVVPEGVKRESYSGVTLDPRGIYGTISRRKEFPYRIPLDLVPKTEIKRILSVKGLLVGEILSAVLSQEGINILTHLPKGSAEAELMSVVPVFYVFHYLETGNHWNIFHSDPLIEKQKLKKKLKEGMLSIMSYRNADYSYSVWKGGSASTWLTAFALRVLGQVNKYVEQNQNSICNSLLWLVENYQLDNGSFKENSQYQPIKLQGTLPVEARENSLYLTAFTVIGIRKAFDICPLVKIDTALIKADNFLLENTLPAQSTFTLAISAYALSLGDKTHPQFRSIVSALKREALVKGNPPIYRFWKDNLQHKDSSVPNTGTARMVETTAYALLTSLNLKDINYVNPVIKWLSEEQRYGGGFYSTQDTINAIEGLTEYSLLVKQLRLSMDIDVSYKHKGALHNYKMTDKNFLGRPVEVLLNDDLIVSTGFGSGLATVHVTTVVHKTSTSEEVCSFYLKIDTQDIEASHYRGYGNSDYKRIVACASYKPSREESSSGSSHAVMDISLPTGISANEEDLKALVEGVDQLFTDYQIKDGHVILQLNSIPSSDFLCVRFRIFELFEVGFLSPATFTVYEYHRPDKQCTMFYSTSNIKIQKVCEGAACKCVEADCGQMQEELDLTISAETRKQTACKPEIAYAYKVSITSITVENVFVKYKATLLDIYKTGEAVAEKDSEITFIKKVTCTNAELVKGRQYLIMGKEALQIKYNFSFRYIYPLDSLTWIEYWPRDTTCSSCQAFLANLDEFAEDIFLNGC

| Sequence | competition among phage clones and free peptides for binding to C5 [1] | specific binding to complement component C5 [1] | C3a production [2] | C5a production [2] | SC5b-9 production [2] | C3a generation [3] | C5a production [3] | SC5b-9 production [3] | inhibition of hemolysis [4] | C3a production [5] | C5a generation [5] | SC5b-9 generation [5] | inhibition of complement mediated cell death [6] | inhibitory activity in RBC hemolysis assay compared with parent peptide [4] |
| --- | --- | --- | --- | --- | --- | --- | --- | --- | --- | --- | --- | --- | --- | --- |
| SFNDLLWRWEWP [Peptide 7] | significant competition | specifically bound complement component C5 | enhanced production | inhibited | inhibited | activated | inhibited | inhibited | significant inhibition of hemolysis | activated | inhibited | inhibited | – | – |
| DSTWTNFRWEFY [Peptide 8] | significant competition | specifically bound complement component C5 | neither of these peptides produced an effect | dose-dependent increase in the inhibition | dose-dependent increase in the inhibition | no observeable effect | inhibited | inhibited | significant inhibition of hemolysis | no effect | dose-dependent inhibition | dose-dependent inhibition | – | – |
| TEEVRWEFPL [Peptide 117] | – | – | – | – | – | – | – | – | – | – | – | – | up to 69% | enhanced the levels of inhibitory activity |
